{"source": "the supplement of paper PMC10307832"}
{"compound": "CC[C@@H]1C(=O)N(C)c2cnc(Nc3ccc(C(=O)NC4CCN(C)CC4)cc3OC)nc2N1C1CCCC1 [BI-2536] + NC(=O)Nc1cc(-c2cccc(F)c2)sc1C(=O)N[C@H]1CCCNC1 [AZD7762] (partner 0.2 µM)", "test": "relative viability (nuclei count vs DMSO), 5 days (fraction); higher = more cells survive", "details": "first compound 0.01 µM", "method_in_brief": "(§1)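 Each reported value is a median over duplicate plates. It expresses relative viability: treated-well nuclei count divided by vehicle-well nuclei count. Lung cancer cell lines in 1536-well plates were dosed by pin tool a day after seeding, alone with one drug or with a fixed anchor-drug dose plus five library-drug doses (not always all listed) in √10 steps, and nuclei were counted after 5 days.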"}
{"cell line": "NCI-H522", "relative viability": 0.826}
{"cell line": "NCI-H727", "relative viability": 0.479}
{"cell line": "NCI-H1703", "relative viability": 0.141}
{"cell line": "NCI-H1993", "relative viability": 0.734}
{"cell line": "NCI-H838", "relative viability": 0.905}
{"cell line": "LCLC-103H", "relative viability": 0.804}
{"cell line": "NCI-H2126", "relative viability": 1.01}
{"cell line": "EMC-BAC-2", "relative viability": 1.05}
{"cell line": "NCI-H2085", "relative viability": 1.03}
{"cell line": "HCC-366", "relative viability": 0.246}
{"cell line": "NCI-H1666", "relative viability": 0.803}
{"cell line": "NCI-H596", "relative viability": 1.1}
{"cell line": "LK-2", "relative viability": 0.463}
{"cell line": "SW 900", "relative viability": 0.557}
{"cell line": "NCI-H1648", "relative viability": 0.767}
{"cell line": "CAL-12T", "relative viability": 0.608}
{"compound": "CC[C@@H]1C(=O)N(C)c2cnc(Nc3ccc(C(=O)NC4CCN(C)CC4)cc3OC)nc2N1C1CCCC1 [BI-2536] + NC(=O)Nc1cc(-c2cccc(F)c2)sc1C(=O)N[C@H]1CCCNC1 [AZD7762] (partner 0.2 µM)", "test": "relative viability (nuclei count vs DMSO), 5 days (fraction); higher = more cells survive", "details": "first compound 0.03162 µM", "method_in_brief": "as §1"}
{"cell line": "NCI-H522", "relative viability": 0.879}
{"cell line": "NCI-H727", "relative viability": 0.8}
{"cell line": "NCI-H1703", "relative viability": 0.174}
{"cell line": "NCI-H1993", "relative viability": 0.668}
{"cell line": "NCI-H838", "relative viability": 0.803}
{"cell line": "LCLC-103H", "relative viability": 0.826}
{"cell line": "NCI-H2126", "relative viability": 1.09}
{"cell line": "EMC-BAC-2", "relative viability": 1.21}
{"cell line": "NCI-H2085", "relative viability": 0.963}
{"cell line": "HCC-366", "relative viability": 0.37}
{"cell line": "NCI-H1666", "relative viability": 0.851}
{"cell line": "NCI-H596", "relative viability": 1.14}
{"cell line": "LK-2", "relative viability": 0.5}
{"cell line": "NCI-H2342", "relative viability": 0.459}
{"cell line": "SW 900", "relative viability": 0.689}
{"cell line": "NCI-H1648", "relative viability": 0.775}
{"cell line": "CAL-12T", "relative viability": 0.712}
{"compound": "CC[C@@H]1C(=O)N(C)c2cnc(Nc3ccc(C(=O)NC4CCN(C)CC4)cc3OC)nc2N1C1CCCC1 [BI-2536] + NC(=O)Nc1cc(-c2cccc(F)c2)sc1C(=O)N[C@H]1CCCNC1 [AZD7762] (partner 0.2 µM)", "test": "relative viability (nuclei count vs DMSO), 5 days (fraction); higher = more cells survive", "details": "first compound 0.1 µM", "method_in_brief": "as §1"}
{"cell line": "NCI-H522", "relative viability": 0.944}
{"cell line": "NCI-H727", "relative viability": 0.664}
{"cell line": "NCI-H1703", "relative viability": 0.0928}
{"cell line": "NCI-H1993", "relative viability": 0.407}
{"cell line": "NCI-H838", "relative viability": 0.831}
{"cell line": "LCLC-103H", "relative viability": 0.605}
{"cell line": "NCI-H2126", "relative viability": 0.855}
{"cell line": "EMC-BAC-2", "relative viability": 0.777}
{"cell line": "NCI-H2085", "relative viability": 0.737}
{"cell line": "HCC-366", "relative viability": 0.156}
{"cell line": "NCI-H1666", "relative viability": 0.827}
{"cell line": "NCI-H596", "relative viability": 1.11}
{"cell line": "LK-2", "relative viability": 0.121}
{"cell line": "NCI-H2342", "relative viability": 0.411}
{"cell line": "SW 900", "relative viability": 0.568}
{"cell line": "NCI-H1648", "relative viability": 0.432}
{"cell line": "CAL-12T", "relative viability": 0.619}
{"compound": "CC[C@@H]1C(=O)N(C)c2cnc(Nc3ccc(C(=O)NC4CCN(C)CC4)cc3OC)nc2N1C1CCCC1 [BI-2536] + NC(=O)Nc1cc(-c2cccc(F)c2)sc1C(=O)N[C@H]1CCCNC1 [AZD7762] (partner 0.2 µM)", "test": "relative viability (nuclei count vs DMSO), 5 days (fraction); higher = more cells survive", "details": "first compound 0.3162 µM", "method_in_brief": "as §1"}
{"cell line": "NCI-H522", "relative viability": 0.302}
{"cell line": "NCI-H727", "relative viability": 0.406}
{"cell line": "NCI-H1703", "relative viability": 0.0808}
{"cell line": "NCI-H1993", "relative viability": 0.53}
{"cell line": "NCI-H838", "relative viability": 0.634}
{"cell line": "LCLC-103H", "relative viability": 0.244}
{"cell line": "NCI-H2126", "relative viability": 0.428}
{"cell line": "EMC-BAC-2", "relative viability": 0.269}
{"cell line": "NCI-H2085", "relative viability": 0.217}
{"cell line": "HCC-366", "relative viability": 0.017}
{"cell line": "NCI-H1666", "relative viability": 0.411}
{"cell line": "NCI-H596", "relative viability": 0.342}
{"cell line": "LK-2", "relative viability": 0.0816}
{"cell line": "NCI-H2342", "relative viability": 0.267}
{"cell line": "SW 900", "relative viability": 0.188}
{"cell line": "NCI-H1648", "relative viability": 0.332}
{"cell line": "CAL-12T", "relative viability": 0.177}
{"compound": "CC[C@@H]1C(=O)N(C)c2cnc(Nc3ccc(C(=O)NC4CCN(C)CC4)cc3OC)nc2N1C1CCCC1 [BI-2536] + NC(=O)Nc1cc(-c2cccc(F)c2)sc1C(=O)N[C@H]1CCCNC1 [AZD7762] (partner 0.2 µM)", "test": "relative viability (nuclei count vs DMSO), 5 days (fraction); higher = more cells survive", "details": "first compound 1 µM", "method_in_brief": "as §1"}
{"cell line": "NCI-H522", "relative viability": 0.365}
{"cell line": "NCI-H727", "relative viability": 0.314}
{"cell line": "NCI-H1703", "relative viability": 0.0722}
{"cell line": "NCI-H1993", "relative viability": 0.348}
{"cell line": "NCI-H838", "relative viability": 0.634}
{"cell line": "LCLC-103H", "relative viability": 0.169}
{"cell line": "NCI-H2126", "relative viability": 0.223}
{"cell line": "EMC-BAC-2", "relative viability": 0.277}
{"cell line": "NCI-H2085", "relative viability": 0.27}
{"cell line": "HCC-366", "relative viability": 0.0177}
{"cell line": "NCI-H1666", "relative viability": 0.368}
{"cell line": "NCI-H596", "relative viability": 0.403}
{"cell line": "LK-2", "relative viability": 0.091}
{"cell line": "NCI-H2342", "relative viability": 0.349}
{"cell line": "SW 900", "relative viability": 0.137}
{"cell line": "NCI-H1648", "relative viability": 0.224}
{"cell line": "CAL-12T", "relative viability": 0.187}
{"compound": "CC1CC(=O)N(C2=CN=C(N=C2N1C3CCCC3)NC4=C(C=C(C=C4)C(=O)NC5CCN(CC5)C)OC)C [NPK76-II-72-1] + O=C(c1cc(Cc2n[nH]c(=O)c3ccccc23)ccc1F)N1CCN(C(=O)C2CC2)CC1 [Olaparib] (partner 8 µM)", "test": "relative viability (nuclei count vs DMSO), 5 days (fraction); higher = more cells survive", "details": "first compound 0.01 µM", "method_in_brief": "as §1"}
{"cell line": "NCI-H522", "relative viability": 0.586}
{"cell line": "NCI-H727", "relative viability": 0.957}
{"cell line": "NCI-H1650", "relative viability": 0.661}
{"cell line": "EBC-1", "relative viability": 0.697}
{"cell line": "NCI-H1703", "relative viability": 0.473}
{"cell line": "NCI-H1993", "relative viability": 0.96}
{"cell line": "SW 1573", "relative viability": 0.437}
{"cell line": "NCI-H838", "relative viability": 0.712}
{"cell line": "NCI-H520", "relative viability": 0.294}
{"cell line": "NCI-H2126", "relative viability": 0.903}
{"cell line": "EMC-BAC-2", "relative viability": 0.468}
{"cell line": "NCI-H2085", "relative viability": 0.718}
{"cell line": "Calu-6", "relative viability": 0.561}
{"cell line": "HCC-366", "relative viability": 0.328}
{"cell line": "NCI-H1666", "relative viability": 0.74}
{"cell line": "NCI-H596", "relative viability": 0.771}
{"cell line": "LK-2", "relative viability": 0.775}
{"cell line": "NCI-H2342", "relative viability": 0.393}
{"cell line": "SK-MES-1", "relative viability": 0.646}
{"cell line": "COR-L23", "relative viability": 0.321}
{"cell line": "COR-L 105", "relative viability": 0.586}
{"cell line": "IA-LM", "relative viability": 0.811}
{"cell line": "A549", "relative viability": 0.215}
{"cell line": "SW 900", "relative viability": 0.805}
{"cell line": "NCI-H1648", "relative viability": 0.535}
{"cell line": "NCI-H2009", "relative viability": 0.652}
{"cell line": "NCI-H661", "relative viability": 0.697}
{"cell line": "SK-LU-1", "relative viability": 0.432}
{"cell line": "NCI-H1299", "relative viability": 0.946}
{"cell line": "CAL-12T", "relative viability": 0.724}
{"cell line": "NCI-H2228", "relative viability": 0.561}
{"cell line": "NCI-H2023", "relative viability": 0.469}
{"compound": "CC1CC(=O)N(C2=CN=C(N=C2N1C3CCCC3)NC4=C(C=C(C=C4)C(=O)NC5CCN(CC5)C)OC)C [NPK76-II-72-1] + O=C(c1cc(Cc2n[nH]c(=O)c3ccccc23)ccc1F)N1CCN(C(=O)C2CC2)CC1 [Olaparib] (partner 8 µM)", "test": "relative viability (nuclei count vs DMSO), 5 days (fraction); higher = more cells survive", "details": "first compound 0.03162 µM", "method_in_brief": "as §1"}
{"cell line": "NCI-H522", "relative viability": 0.661}
{"cell line": "NCI-H727", "relative viability": 0.774}
{"cell line": "NCI-H1650", "relative viability": 0.751}
{"cell line": "EBC-1", "relative viability": 0.734}
{"cell line": "NCI-H1703", "relative viability": 0.54}
{"cell line": "NCI-H1993", "relative viability": 1.05}
{"cell line": "SW 1573", "relative viability": 0.625}
{"cell line": "NCI-H838", "relative viability": 0.846}
{"cell line": "LCLC-103H", "relative viability": 0.744}
{"cell line": "NCI-H520", "relative viability": 0.351}
{"cell line": "NCI-H2126", "relative viability": 0.897}
{"cell line": "EMC-BAC-2", "relative viability": 0.506}
{"cell line": "NCI-H2085", "relative viability": 0.77}
{"cell line": "Calu-6", "relative viability": 0.625}
{"cell line": "HCC-366", "relative viability": 0.374}
